Measured values reported in PubChem BioAssay AID192 (DTP/NCI, 2004).
Inconclusive results and toxic doses are left out. How the source made its calls: active means survival T/C of 150% or more; inactive means T/C below 125% in these data.

Tested on: BDF1 mice, B16 melanoma ip, median survival T/C
Assay: NCI In Vivo Anticancer Drug Screen. Data for tumor model B16 Melanoma (intraperitoneal) in B6D2F1 (BDF1) mice
Details: endpoint: median survival time, higher = longer survival
How it was run: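 Mice with transplantable tumors; drug vs vehicle groups; endpoint survival or tumor size; value = T/C.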

[1] = dose: 25.0 mg/kg/injection, schedule: Q01DX009 (ip), vehicle: saline with Tween-80
[2] = dose: 50.0 mg/kg/injection, schedule: Q01DX009 (ip), vehicle: saline with Tween-80
[3] = dose: 100.0 mg/kg/injection, schedule: Q01DX009 (ip), vehicle: saline with Tween-80
[4] = dose: 200.0 mg/kg/injection, schedule: Q01DX009 (ip), vehicle: saline with Tween-80
[5] = dose: 100.0 mg/kg/injection, schedule: Q01DX009 (ip), vehicle: Klucel (hydroxypropylcellulose) (HPC)
[6] = dose: 200.0 mg/kg/injection, schedule: Q01DX009 (ip), vehicle: Klucel (hydroxypropylcellulose) (HPC)
[7] = dose: 400.0 mg/kg/injection, schedule: Q01DX009 (ip), vehicle: Klucel (hydroxypropylcellulose) (HPC)
[8] = dose: 50.0 mg/kg/injection, schedule: Q01DX009 (ip), vehicle: Klucel (hydroxypropylcellulose) (HPC)
[9] = dose: 400.0 mg/kg/injection, schedule: Q01DX009 (ip), vehicle: saline with Tween-80
[10] = dose: 12.5 mg/kg/injection, schedule: Q01DX009 (ip), vehicle: saline with Tween-80
[11] = dose: 18.75 mg/kg/injection, schedule: Q04DX003 (ip), vehicle: saline with Tween-80
[12] = dose: 50.0 mg/kg/injection, schedule: Q01DX009 (ip), vehicle: saline
[13] = dose: 100.0 mg/kg/injection, schedule: Q01DX009 (ip), vehicle: saline

Measured: T/C

COc1c(Br)c2c(c(OC)c1OC)-c1ccc(OC)c(=O)cc1C(NC(C)=O)CC2 (stereo not given)
inactive: dose: 0.38 mg/kg/injection, schedule: Q01DX009 (ip), vehicle: Klucel (hydroxypropylcellulose) (HPC) 113 % of control | dose: 0.75 mg/kg/injection, schedule: Q01DX009 (ip), vehicle: Klucel (hydroxypropylcellulose) (HPC) 115 % of control | dose: 1.5 mg/kg/injection, schedule: Q01DX009 (ip), vehicle: Klucel (hydroxypropylcellulose) (HPC) 112 % of control | dose: 3.0 mg/kg/injection, schedule: Q01DX009 (ip), vehicle: Klucel (hydroxypropylcellulose) (HPC) 118 % of control

O=[N+]([O-])c1ccc(N=Nc2c(Cl)cc(O)cc2Cl)cc1
inactive: [1] 101 % of control | [2] 90 % of control | [3] 88 % of control | [4] 90 % of control

CC1CCN(c2ccc([N+](=O)[O-])cc2)CC1
inactive: [5] 106 % of control | [6] 87 % of control | [7] 96 % of control

Cc1cccc(N2CCN(CCC#N)CC2)c1
inactive: [1] 102 % of control | [2] 108 % of control

CO[C@H]1C[C@H](O[C@H]2CC[C@]3(C=O)[C@H]4CC[C@]5(C)[C@@H](C6=CC(=O)OC6)CC[C@]5(O)[C@@H]4CC[C@]3(O)C2)O[C@H](C)[C@H]1O[C@@H]1O[C@H](CO)[C@@H](O)[C@H](O)[C@H]1O
inactive: dose: 0.25 mg/kg/injection, schedule: Q01DX009 (ip), vehicle: saline 105 % of control | dose: 0.25 mg/kg/injection, schedule: Q04DX003 (ip), vehicle: saline 100 % of control | dose: 0.5 mg/kg/injection, schedule: Q01DX009 (ip), vehicle: saline 100 % of control | dose: 0.5 mg/kg/injection, schedule: Q04DX003 (ip), vehicle: saline 102 % of control | dose: 1.0 mg/kg/injection, schedule: Q01DX009 (ip), vehicle: saline 100 % of control | dose: 1.0 mg/kg/injection, schedule: Q04DX003 (ip), vehicle: saline 105 % of control | dose: 2.0 mg/kg/injection, schedule: Q01DX009 (ip), vehicle: saline 94 % of control

C[C@@H]1C(=O)C[C@H]2C(C)(C)CCC[C@]2(C)[C@@]1(O)CCc1ccoc1
inactive: dose: 25.0 mg/kg/injection, schedule: Q01DX009 (ip), vehicle: Klucel (hydroxypropylcellulose) (HPC) 99 % of control | [8] 89 % of control | [5] 93 % of control | [6] 86 % of control

CCN(C(=O)Nc1cccc(Cl)c1)c1ccccc1C
inactive: [3] 100 % of control | [4] 100 % of control | [9] 94 % of control

Cn1c(C(Cl)Cl)nc2ccccc2c1=O
inactive: [10] 110 % of control | [1] 105 % of control | [2] 105 % of control

C[n+]1c(-c2cccc3ccccc23)c2cc(N)ccc2c2ccccc21
inactive: dose: 1.56 mg/kg/injection, schedule: Q01DX009 (ip), vehicle: water 114 % of control | dose: 3.12 mg/kg/injection, schedule: Q01DX009 (ip), vehicle: water 106 % of control | dose: 6.25 mg/kg/injection, schedule: Q01DX009 (ip), vehicle: water 124 % of control | dose: 12.5 mg/kg/injection, schedule: Q01DX009 (ip), vehicle: water 94 % of control

CCCCCCCCCCCCCCCCCCNC(=O)CCl
inactive: [8] 93 % of control | [5] 93 % of control | [6] 86 % of control

CCNCc1cc(Nc2nc(NC3CCC(N(C)C)CC3)c3ccccc3n2)ccc1OC (stereo not given)
inactive: dose: 2.5 mg/kg/injection, schedule: Q01DX009 (ip), vehicle: saline 105 % of control | dose: 5.0 mg/kg/injection, schedule: Q01DX009 (ip), vehicle: saline 103 % of control | dose: 10.0 mg/kg/injection, schedule: Q01DX009 (ip), vehicle: saline 114 % of control | dose: 20.0 mg/kg/injection, schedule: Q01DX009 (ip), vehicle: saline 122 % of control | dose: 40.0 mg/kg/injection, schedule: Q01DX009 (ip), vehicle: saline 112 % of control

O=Nc1ccc2cc(O)ccc2c1O
inactive: dose: 3.12 mg/kg/injection, schedule: Q04DX003 (ip), vehicle: Klucel (hydroxypropylcellulose) (HPC) 97 % of control | dose: 6.25 mg/kg/injection, schedule: Q01DX009 (ip), vehicle: Klucel (hydroxypropylcellulose) (HPC) 95 % of control | dose: 6.25 mg/kg/injection, schedule: Q04DX003 (ip), vehicle: Klucel (hydroxypropylcellulose) (HPC) 102 % of control | dose: 12.5 mg/kg/injection, schedule: Q01DX009 (ip), vehicle: Klucel (hydroxypropylcellulose) (HPC) 109 % of control | dose: 12.5 mg/kg/injection, schedule: Q04DX003 (ip), vehicle: Klucel (hydroxypropylcellulose) (HPC) 100 % of control

Cc1ccc(S(=O)(=O)N(C)C)cc1N
inactive: [3] 97 % of control | dose: 100.0 mg/kg/injection, schedule: Q04DX003 (ip), vehicle: saline with Tween-80 100 % of control | [4] 118 % of control | dose: 200.0 mg/kg/injection, schedule: Q04DX003 (ip), vehicle: saline with Tween-80 102 % of control | [9] 102 % of control | dose: 400.0 mg/kg/injection, schedule: Q04DX003 (ip), vehicle: saline with Tween-80 100 % of control

CC(C)C1=CC2=CCC3C(C)(CN)CCCC3(C)C2CC1CCN (stereo not given)
inactive: dose: 1.25 mg/kg/injection, schedule: Q01DX009 (ip), vehicle: saline with Tween-80 100 % of control | dose: 1.25 mg/kg/injection, schedule: Q04DX003 (ip), vehicle: saline with Tween-80 104 % of control | dose: 2.5 mg/kg/injection, schedule: Q01DX009 (ip), vehicle: saline with Tween-80 99 % of control | dose: 2.5 mg/kg/injection, schedule: Q04DX003 (ip), vehicle: saline with Tween-80 88 % of control | dose: 5.0 mg/kg/injection, schedule: Q01DX009 (ip), vehicle: saline with Tween-80 91 % of control | dose: 5.0 mg/kg/injection, schedule: Q04DX003 (ip), vehicle: saline with Tween-80 90 % of control

COc1ccc(C(OC2OC(n3cnc4c(=S)nc(N)[nH]c43)CC2OC(C)=O)(c2ccccc2)c2ccc(OC)cc2)cc1 (stereo not given)
inactive: [5] 90 % of control | [6] 96 % of control | [7] 93 % of control

OC1COC(c2ccco2)OC1 (stereo not given) (tested in a mixture with another compound)
inactive: [8] 100 % of control | [5] 100 % of control | [6] 106 % of control

CC(=O)Nc1ccc(CCCCc2cccc(C(=N)N)c2)cc1
inactive: dose: 2.3 mg/kg/injection, schedule: Q04DX003 (ip), vehicle: saline with Tween-80 86 % of control | dose: 4.6 mg/kg/injection, schedule: Q04DX003 (ip), vehicle: saline with Tween-80 86 % of control | dose: 9.3 mg/kg/injection, schedule: Q04DX003 (ip), vehicle: saline with Tween-80 95 % of control | [10] 97 % of control | [11] 116 % of control | [1] 97 % of control

Cc1nn(CCO)c(C)c1N=[N+]([O-])c1c(C)nn(CCO)c1C
inactive: dose: 15.0 mg/kg/injection, schedule: Q01DX011 (ip), vehicle: saline with Tween-80 88 % of control

CC1CCCN(c2ccc([N+](=O)[O-])cc2[N+](=O)[O-])C1 (stereo not given)
inactive: [5] 93 % of control | [7] 100 % of control

COC(=O)/C(C#N)=N/O
inactive: dose: 9.37 mg/kg/injection, schedule: Q04DX003 (ip), vehicle: saline with Tween-80 95 % of control | [11] 110 % of control | dose: 37.5 mg/kg/injection, schedule: Q04DX003 (ip), vehicle: saline with Tween-80 100 % of control | [12] 107 % of control | dose: 75.0 mg/kg/injection, schedule: Q04DX003 (ip), vehicle: saline 91 % of control | [13] 92 % of control

O=C(O)CSCCc1ccccc1
inactive: [5] 96 % of control | [6] 93 % of control | [7] 100 % of control

CCNC(Cc1ccccc1)C1CCCO1 (stereo not given)
inactive: dose: 6.25 mg/kg/injection, schedule: Q01DX009 (ip), vehicle: saline 122 % of control | dose: 12.5 mg/kg/injection, schedule: Q01DX009 (ip), vehicle: saline 120 % of control | dose: 25.0 mg/kg/injection, schedule: Q01DX009 (ip), vehicle: saline 115 % of control | [12] 115 % of control | [13] 100 % of control

COc1ccc(/C=C2\CCC3C(=O)CCCC3(C)C2=O)cc1 (stereo not given)
inactive: dose: 100.0 mg/kg/injection, schedule: Q04DX003 (ip), vehicle: Klucel (hydroxypropylcellulose) (HPC) 94 % of control | dose: 200.0 mg/kg/injection, schedule: Q04DX003 (ip), vehicle: Klucel (hydroxypropylcellulose) (HPC) 92 % of control | dose: 400.0 mg/kg/injection, schedule: Q04DX003 (ip), vehicle: Klucel (hydroxypropylcellulose) (HPC) 89 % of control

Cc1cccc(NC(=O)c2ccccc2)c1C
inactive: [1] 99 % of control | [2] 99 % of control | [3] 93 % of control

CP(=S)(c1ccccc1)P(C)(=S)c1ccccc1 (stereo not given)
inactive: [6] 119 % of control
